# Assay results reported in patent publication US12077503B2, “Substituted cyclic amides and their use as herbicides” (FMC CORPORATION, priority 2015, dated 2024).
# Experiments:
# Type in all cases: in vivo
# Kochia (Kochia scoparia) [1] = assay: Test A preemergence; details: Bassia scoparia, pre-emergence, 240 h, 0 to 100 scale where 0 is no effect and 100 is complete control, read-out: Kochia plant response rating; for pest or weed control at 31 g/ha: 31 g ai/ha, Preemergence; for pest or weed control at 125 g/ha: 125 g ai/ha, preemergence, visual injury rating, approximately 10 d
# In short: (§1)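 Visual injury, scored on a 0–100 scale relative to untreated controls, was recorded about 10 d after application. Treatments were a preemergence soil spray over planted seeds or a postemergence spray on plants at the one- to two-leaf stage, 2 to 10 cm tall, all in loam soil–sand blend in the greenhouse.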
# [2] = system: ragweed (common ragweed, Ambrosia elatior); assay: Test A preemergence; details: Ambrosia artemisiifolia, pre-emergence, 240 h, 0 to 100 scale where 0 is no effect and 100 is complete control, read-out: Ragweed plant response rating; for pest or weed control at 31 g/ha: 31 g ai/ha, Preemergence; for pest or weed control at 125 g/ha: 125 g ai/ha, preemergence, visual injury rating, approximately 10 d
# In short: as §1
# [3] = system: pigweed (Amaranthus retroflexus); assay: Test A preemergence; details: Amaranthus retroflexus, pre-emergence, 240 h, 0 to 100 scale where 0 is no effect and 100 is complete control, read-out: Pigweed plant response rating; for pest or weed control at 31 g/ha: 31 g ai/ha, Preemergence; for pest or weed control at 125 g/ha: 125 g ai/ha, preemergence, visual injury rating, approximately 10 d
# [4] = system: barnyardgrass (Echinochloa crus-galli); assay: Test A preemergence; details: Echinochloa crus-galli, pre-emergence, 240 h, 0 to 100 scale where 0 is no effect and 100 is complete control, read-out: Barnyardgrass plant response rating; for pest or weed control at 31 g/ha: 31 g ai/ha, Preemergence; for pest or weed control at 125 g/ha: 125 g ai/ha, preemergence, visual injury rating, approximately 10 d
# In short: as §1
# [5] = system: giant foxtail (Setaria faberii); assay: Test A preemergence; details: Setaria faberi, pre-emergence, 240 h, 0 to 100 scale where 0 is no effect and 100 is complete control, read-out: Foxtail, Giant plant response rating; for pest or weed control at 31 g/ha: 31 g ai/ha, Preemergence; for pest or weed control at 125 g/ha: 125 g ai/ha, preemergence, visual injury rating, approximately 10 d
# In short: as §1
# [6] = system: ryegrass, Italian (Italian ryegrass, Lolium multiflorum); assay: Test A preemergence; details: Lolium multiflorum, pre-emergence, 240 h, 0 to 100 scale where 0 is no effect and 100 is complete control, read-out: Ryegrass, Italian plant response rating; for pest or weed control at 31 g/ha: 31 g ai/ha, Preemergence; for pest or weed control at 125 g/ha: 125 g ai/ha, preemergence, visual injury rating, approximately 10 d
# In short: as §1
# Kochia (Kochia scoparia) [7] = assay: Test A postemergence; details: Bassia scoparia, post-emergence, 240 h, Postemergence, read-out: Kochia plant response rating (0 to 100 scale); for pest or weed control at 125 g/ha: 125 g ai/ha, visual rating about 10 d after treatment; for pest or weed control at 31 g/ha: 31 g ai/ha, 0 is no effect, 100 is complete control
# In short: as §1
# [8] = system: ragweed (common ragweed, Ambrosia elatior); assay: Test A postemergence; details: Ambrosia artemisiifolia, post-emergence, 240 h, Postemergence, read-out: Ragweed plant response rating (0 to 100 scale); for pest or weed control at 125 g/ha: 125 g ai/ha, visual rating about 10 d after treatment; for pest or weed control at 31 g/ha: 31 g ai/ha, 0 is no effect, 100 is complete control
# In short: as §1
# [9] = system: Galium (catchweed bedstraw, Galium aparine); assay: Test A postemergence; details: Galium, post-emergence, 240 h, Postemergence, read-out: Galium plant response rating (0 to 100 scale); for pest or weed control at 125 g/ha: 125 g ai/ha, visual rating about 10 d after treatment; for pest or weed control at 31 g/ha: 31 g ai/ha, 0 is no effect, 100 is complete control
# In short: as §1
# [10] = system: pigweed (Amaranthus retroflexus); assay: Test A postemergence; details: Amaranthus retroflexus, post-emergence, 240 h, Postemergence, read-out: Pigweed plant response rating (0 to 100 scale); for pest or weed control at 125 g/ha: 125 g ai/ha, visual rating about 10 d after treatment; for pest or weed control at 31 g/ha: 31 g ai/ha, 0 is no effect, 100 is complete control
# In short: as §1
# corn (Zea mays) = assay: Test A postemergence; details: Zea mays, post-emergence, 240 h, Postemergence, read-out: Corn plant response rating (0 to 100 scale); for plant injury at 125 g/ha: 125 g ai/ha, visual rating about 10 d after treatment; for plant injury at 31 g/ha: 31 g ai/ha, 0 is no effect, 100 is complete control
# In short: as §1
# [11] = system: barnyardgrass (Echinochloa crus-galli); assay: Test A postemergence; details: Echinochloa crus-galli, post-emergence, 240 h, Postemergence; for pest or weed control at 125 g/ha: 125 g ai/ha, visual rating about 10 d after treatment, read-out: Barnyardgrass plant response rating (0 to 100 scale, 0 no effect, 100 complete control); for pest or weed control at 31 g/ha: 31 g ai/ha, 0 is no effect, 100 is complete control, read-out: Barnyardgrass plant response rating (0 to 100 scale)
# In short: as §1
# [12] = system: wheat (Triticum aestivum); assay: Test A postemergence; details: Triticum aestivum, post-emergence, 240 h, Postemergence, read-out: Wheat plant response rating (0 to 100 scale); for plant injury at 125 g/ha: 125 g ai/ha, visual rating about 10 d after treatment; for plant injury at 31 g/ha: 31 g ai/ha, 0 is no effect, 100 is complete control
# In short: as §1
# [13] = system: giant foxtail (Setaria faberii); assay: Test A postemergence; details: Setaria faberi, post-emergence, 240 h, Postemergence, read-out: Foxtail, Giant plant response rating (0 to 100 scale); for pest or weed control at 125 g/ha: 125 g ai/ha, visual rating about 10 d after treatment; for pest or weed control at 31 g/ha: 31 g ai/ha, 0 is no effect, 100 is complete control
# In short: as §1
# [14] = system: blackgrass (Alopecurus myosuroides); assay: Test A postemergence; details: Alopecurus myosuroides, post-emergence, 240 h, Postemergence, read-out: Blackgrass plant response rating (0 to 100 scale); for pest or weed control at 125 g/ha: 125 g ai/ha, visual rating about 10 d after treatment; for pest or weed control at 31 g/ha: 31 g ai/ha, 0 is no effect, 100 is complete control
# In short: as §1
# [15] = system: ryegrass, Italian (Italian ryegrass, Lolium multiflorum); assay: Test A postemergence; details: Lolium multiflorum, post-emergence, 240 h, Postemergence, read-out: Ryegrass, Italian plant response rating (0 to 100 scale); for pest or weed control at 125 g/ha: 125 g ai/ha, visual rating about 10 d after treatment; for pest or weed control at 31 g/ha: 31 g ai/ha, 0 is no effect, 100 is complete control
# In short: as §1
# rice (Oryra sativa) = assay: Test B flooded paddy test; details: Oryza sativa, 250 g ai/ha, Flood; 0 to 100 scale where 0 is no effect and 100 is complete control; read-out: Rice plant response rating
# In short: (§2)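 Compound goes directly into floodwater once pots are flooded 3 cm above soil, targeting plants at two leaves; the water depth is then held for the test duration. Plants sit 13–15 d in a greenhouse and are rated visually, 100 denoting complete control.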
# [16] = system: sedge, umbrella (small-flower umbrella sedge, Cyperus difformis); assay: Test B flooded paddy test; details: Cyperus difformis, 250 g ai/ha, Flood; 0 to 100 scale where 0 is no effect and 100 is complete control; read-out: Sedge, Umbrella plant response rating
# In short: as §2
# [17] = system: barnyardgrass (Echinochloa crus-galli); assay: Test B flooded paddy test; details: Echinochloa crus-galli, 250 g ai/ha, Flood; 0 to 100 scale where 0 is no effect and 100 is complete control; read-out: Barnyardgrass plant response rating
# In short: as §2
# [18] = system: ducksalad (Heteranthera limosa); assay: Test B flooded paddy test; details: Heteranthera limosa, 250 g ai/ha, Flood; 0 to 100 scale where 0 is no effect and 100 is complete control; read-out: Ducksalad plant response rating
# In short: as §2
Structure (SMILES),pest or weed control at 31 g/ha (Kochia (Kochia scoparia) [1]) [%],pest or weed control at 125 g/ha (Kochia (Kochia scoparia) [1]) [%],pest or weed control at 31 g/ha [2] [%],pest or weed control at 125 g/ha [2] [%],pest or weed control at 31 g/ha [3] [%],pest or weed control at 125 g/ha [3] [%],pest or weed control at 31 g/ha [4] [%],pest or weed control at 125 g/ha [4] [%],pest or weed control at 31 g/ha [5] [%],pest or weed control at 125 g/ha [5] [%],pest or weed control at 31 g/ha [6] [%],pest or weed control at 125 g/ha [6] [%],pest or weed control at 125 g/ha (Kochia (Kochia scoparia) [7]) [%],pest or weed control at 31 g/ha (Kochia (Kochia scoparia) [7]) [%],pest or weed control at 125 g/ha [8] [%],pest or weed control at 31 g/ha [8] [%],pest or weed control at 125 g/ha [9] [%],pest or weed control at 31 g/ha [9] [%],pest or weed control at 125 g/ha [10] [%],pest or weed control at 31 g/ha [10] [%],also measured
CN1C[C@H](c2cccc(C#N)c2)[C@@H](C(=O)Nc2ccccc2F)C1=O [Compound 1285],20,30,30,30,0,0,40,90,90,100,0,0,0,0,0,0,30,20,20,20,plant injury at 125 g/ha (corn (Zea mays)): 0%; plant injury at 31 g/ha (corn (Zea mays)): 0%; pest or weed control at 125 g/ha [11]: 80%; pest or weed control at 31 g/ha [11]: 60%; plant injury at 125 g/ha [12]: 0%; plant injury at 31 g/ha [12]: 0%; pest or weed control at 125 g/ha [13]: 70%; pest or weed control at 31 g/ha [13]: 40%; pest or weed control at 125 g/ha [14]: 0%; pest or weed control at 31 g/ha [14]: 0%; pest or weed control at 125 g/ha [15]: 0%; pest or weed control at 31 g/ha [15]: 0%; pest or weed control at 250 g/ha (rice (Oryra sativa)): 25%; pest or weed control at 250 g/ha [16]: 0%; pest or weed control at 250 g/ha [17]: 60%; pest or weed control at 250 g/ha [18]: 90%
CN1C[C@H](c2cccc(C#N)c2)[C@@H](C(=O)Nc2ccc(F)c(F)c2F)C1=O [Compound 1287],20,70,0,0,0,40,90,100,100,100,0,40,30,0,0,0,40,30,0,0,plant injury at 125 g/ha (corn (Zea mays)): 0%; plant injury at 31 g/ha (corn (Zea mays)): 0%; pest or weed control at 125 g/ha [11]: 90%; pest or weed control at 31 g/ha [11]: 80%; plant injury at 125 g/ha [12]: 0%; plant injury at 31 g/ha [12]: 0%; pest or weed control at 125 g/ha [13]: 80%; pest or weed control at 31 g/ha [13]: 70%; pest or weed control at 125 g/ha [14]: 20%; pest or weed control at 31 g/ha [14]: 0%; pest or weed control at 125 g/ha [15]: 0%; pest or weed control at 31 g/ha [15]: 0%; pest or weed control at 250 g/ha (rice (Oryra sativa)): 15%; pest or weed control at 250 g/ha [16]: 0%; pest or weed control at 250 g/ha [17]: 75%; pest or weed control at 250 g/ha [18]: 80%
